Results from patent US20250176553A1, “SOLUTION FOR […] AND METHOD OF PRODUCING THEREOF” (OCT, Inc., priority 2022, published 2025).
Several values for one entry are separate records, joined by “and”; a condition that tells them apart may be missing. Equal values may be shown once. Read-outs that look alike come from different tables or passages of the source.

Legend:
hibiscus leaf = settings: adjusted to pH 0.5; leaf surface wetted, observed after 20 hours
Procedure: A hibiscus leaf was divided into left and right halves by the central vein. […] The surfaces of the half leaves were observed after 20 hours.

[1] = test system: Streptococcus mutans biofilms; settings: for Absorbance, Average value: average of samples 1-6; for Absorbance, Average value / Absorbance: 590 nm; for Absorbance: individual samples 1-6, 24 hours culture
Excerpt: (§1) FIGS. 3 to 6 show the experimental results in which Streptococcus mutans strains are actually used. Streptococcus mutans is a facultative anaerobe and a gram-positive streptococcus. It produces insoluble, sticky glucans that stick to tooth surfaces. It is one of the bacteria that mainly cause dental caries. THB (TODD-HEWITT BROTH) supplemented with 2% (w/v) sucrose was used as the medium. Sucrose is a sugar composed of the monosaccharides glucose and fructose with an α-1,2-glycosidic linkage and one of the disaccharides. THB manufactured by Becton, Dickinson and Company was used. For sucrose, “CASRN” manufactured by FUJIFILM Wako Pure Chemical Corporation was used. The plate used for culture was a Thermo Scientific Nunclon Delta Surface 96 well. The incubator used was a Panasonic multi-gas incubator MCO-5MUV-PJ. Culturing was conducted at 37° C. under an atmosphere of 5% CO2 gas, 5% O2 gas and 90% N2 gas.
(§2) Devices and the like used to measure residual biofilms are described below. For staining, 0.1% Crystal Violet from FUJIFILM Wako Pure Chemical Corporation was used. It was dissolved in distilled water to 0.1% (w/v).
(§3) Life Technologies EVOS XL Core was used as the microscope for photography. […] Co., Ltd. was used as the absorption spectrometer. The data processing software was “SF6” and the absorbance wavelength was 590 nm.
Streptococcus mutans was diluted in 2% sucrose-containing THB and 10 inoculated samples of 100 μL each were plated onto cell culture plates (Thermo Scientific Nunclon Delta Surface 96well). […] No test solution was added to one of the 10 inoculated samples.
The samples were then cultured in a multi-gas incubator for 24 hours to allow biofilms to form on the bottom of each plate. After culturing, the plates were washed with distilled water and stained with 0.1% Crystal Violet solution for 10 minutes. After staining, the plates were washed again with distilled water, dried and then observed and photographed with a bright field inverted microscope.
(§4) Crystal Violet was then extracted with 100 μL of 99.5% ethanol (FUJIFILM Wako Pure Chemical Corporation), and the absorbance was measured at a wavelength of 590 nm using an absorption spectrometer grating microplate reader.

[2] = test system: Streptococcus mutans biofilms; settings: for Absorbance, Average value: average of samples 1-6, 590 nm; for Absorbance trend: FIG. 5
Excerpt: as §1, §2, §3
(§5) Streptococcus mutans was diluted in 2% sucrose-containing THB and 10 inoculated samples of 100 μL each were plated onto cell culture plates (Thermo Scientific Nunclon Delta Surface 96well). The samples were then cultured in a multi-gas incubator for 24 hours to allow biofilms to form on the bottom of each plate.
The samples were further cultured in a multi-gas incubator for 24 hours. After culturing, the plates were washed with distilled water and stained with 0.1% Crystal Violet solution for 10 minutes. After staining, the plates were washed again with distilled water, dried and then observed and photographed using a bright field inverted microscope.
as §4

[3] = test system: Streptococcus mutans biofilms; settings: for Absorbance, Average value: average of samples 1-6; for Absorbance: individual samples 1-6, medium replaced after biofilm formation, further 24 hours
Excerpt: as §1, §2, §3, §5
The media were removed and the plates were washed with distilled water 24 hours after the start of cultivation. […] The samples were further cultured in a multi-gas incubator for 24 hours. After culturing, the plates were washed with distilled water and stained with 0.1% Crystal Violet solution for 10 minutes. After staining, the plates were washed again with distilled water, dried and then observed and photographed using a bright field inverted microscope.

Fn bacteria biofilms = settings: for Absorbance, Average value: average of samples 1-5
Procedure: THB (TODD-HEWITT BROTH) supplemented with 2% (w/v) sucrose was used as the medium. Sucrose is a sugar composed of the monosaccharides glucose and fructose with an α-1,2-glycosidic linkage and one of the disaccharides. THB manufactured by Becton, Dickinson and Company was used. For sucrose, “CASRN” manufactured by FUJIFILM Wako Pure Chemical Corporation was used. The plate used for culture was a Thermo Scientific Nunclon Delta Surface 96 well. The incubator used was a Panasonic multi-gas incubator MCO-5MUV-PJ. Culturing was conducted at 37° C. under an atmosphere of 5% CO2 gas, 5% O2 gas and 90% N2 gas.
Fn bacteria were diluted in 2% sucrose-containing THB and 10 inoculated samples of […] each were plated onto cell culture plates (Thermo Scientific Nunclon Delta Surface 96well). […] No test solution was added to one of the […] inoculated samples.
The samples were then cultured in a multi-gas incubator for 24 hours to allow biofilms to form on the bottom of each plate. After culturing, the plates were washed with distilled water and stained with 0.1% Crystal Violet solution for 10 minutes. After staining, the plates were washed with distilled water again and dried.
as §4

[4] = for Viscosity: 4 cc added to 150 g test sample, 25° C.
Procedure: The starch syrup used was manufactured by KATO SANGYO CO., LTD. (product name “Kanpy starch syrup”) and the vegetable jelly used was from COOP (manufacturer: Ina Food Industry Co., Ltd.) (product name “Coop Agar”).
Solutions for destroying biofilms adjusted to various pH values and a test solution were added to test mixtures of starch syrup and Coop Agar and the viscosity of each mixture was measured. Viscosity was measured using a “Viscotester (high viscosity type) VT-06” manufactured by RION Co., Ltd.
First, starch syrup and Coop Agar were mixed in a beaker at a ratio of 34 to 5 and the viscosity was measured with a Viscotester (high viscosity type) VT-06. […] The mixture of starch syrup and Coop Agar to be used for the test (test sample) was prepared weighing 150 grams. […] To 150 g of the test sample, 4 cc of the test solution was added and the measurement was performed with a Viscotester (high viscosity type) VT-06. The room temperature was 25° C. and humidity was 63% when the test was conducted.

In the case of O=S(=O)(O)O [sulfuric acid (H2SO4), reference compound], the “Leaf surface damage (white spotted areas, dead leaf cells)” value (hibiscus leaf) is reported as “areas where leaf cells are dead”.

For [2H]OS(=O)(=O)O[2H] [deuterated sulfuric acid (D2SO4)], the “Leaf surface damage (white spotted areas, dead leaf cells)” value (hibiscus leaf) was “the white spotted areas surrounded by dotted lines are significantly smaller”, the “Colour of stained plate (photograph, remaining biofilm)” value ([1]; pH 0.8, 1.2 and 1.5, FIG. 3 upper panel) was “biofilm formation is significantly inhibited and destroyed” and the “Absorbance, Average value” ([1]; pH 0.8) was 0.089. The Absorbance ([1]; pH 0.8) was 0.089 (3×) and 0.090 (2×) and 0.088, the “Absorbance, Average value” ([1]; pH 1.2) was 0.096 and the “Absorbance, Average value” ([1]; pH 1.5) was 0.100. It also gave an Absorbance ([1]; pH 2.3) of 0.734, an Absorbance ([1]; pH 3.3) of 0.876 and an Absorbance ([1]; pH 3.7) of 0.874. For the same molecule, the Absorbance ([1]; pH 4.0) was 0.733, the “Biofilm formation from absorbance trend” value ([1]; pH value below 2.3, FIG. 4) was “almost no biofilm was formed” and the “Colour of stained plate (photograph, remaining biofilm)” value ([2]; lower pH values, FIG. 3 middle panel) was “more biofilms were destroyed”. For the same molecule, the “Absorbance, Average value” ([2]; pH 0.8) was 0.678, the “Absorbance, Average value” ([2]; pH 1.2) was 1.164 and the “Absorbance, Average value” ([2]; pH 1.5) was 1.250. The “Absorbance, Average value” ([2]; pH 2.3) was 1.288, the “Absorbance, Average value” ([2]; pH 2.7) was 1.375 and the “Absorbance, Average value” ([2]; pH 3.0) was 1.457. The “Absorbance, Average value” ([2]; pH 3.3) was 1.226, the “Absorbance, Average value” ([2]; pH 3.7) was 1.354 and the “Absorbance, Average value” ([2]; pH 4.0) was 1.346. The Absorbance trend ([2]; pH value below 1.5) was “absorbance decreased rapidly”, the Absorbance trend ([2]; pH value below 3.0) was “absorbance decreased gradually” and the “Colour of stained plate (photograph, remaining biofilm)” value ([3]; lower pH values, FIG. 3 lower panel) was “more biofilms were destroyed”. For the same molecule, the “Absorbance, Average value” ([3]; pH 0.5) was 0.590, the Absorbance ([3]; pH 0.5) was 0.438 and 0.570 and the “Absorbance, Average value” ([3]; pH 0.8) was 0.729. For the same molecule, the Absorbance ([3]; pH 0.8) was 0.649 and 0.678, the Absorbance ([3]; pH 1.2) was 0.948 and 0.729 and 0.723 and the “Absorbance, Average value” ([3]; pH 2.0) was 0.989. For the same molecule, the Absorbance ([3]; pH 2.0) was 0.951 and 0.966 and 0.921, the “Absorbance, Average value” ([3]; pH 2.3) was 1.083 and the Absorbance ([3]; pH 2.3) was 1.091 and 1.052 and 1.038. For the same molecule, the “Absorbance, Average value” ([3]; pH 2.7) was 1.098, the Absorbance ([3]; pH 2.7) was 1.167 and 1.149 and 1.070 and the “Absorbance, Average value” ([3]; pH 3.0) was 1.038. The Absorbance ([3]; pH 3.0) was 1.036 and 1.113, the “Absorbance, Average value” ([3]; pH 3.3) was 1.113 and the Absorbance ([3]; pH 3.3) was 1.044 and 1.117 and 1.054. For the same molecule, the “Absorbance, Average value” ([3]; pH 3.7) was 1.107, the Absorbance ([3]; pH 3.7) was 1.157 and 1.116 and 1.040 and the “Biofilm destruction from absorbance trend” value ([3]; pH below 2.0, FIG. 6) was “biofilms are destroyed”. For the same molecule, the “Absorbance, Average value” (Fn bacteria biofilms; pH 0.5, 590 nm) was 0.123, the Absorbance (Fn bacteria biofilms; pH 0.5, individual samples 1-5, 590 nm, 24 hours culture) was 0.123 (2×) and 0.124 (2×) and 0.122 and the “Absorbance, Average value” (Fn bacteria biofilms; pH 2.0, 590 nm) was 0.320. The “Absorbance, Average value” (Fn bacteria biofilms; pH 3.0, 590 nm) was 0.386, the “Absorbance, Average value” (Fn bacteria biofilms; pH 4.0, 590 nm) was 0.425 and the “Absorbance, Average value” (Fn bacteria biofilms; pH 5.0, 590 nm) was 0.441. For the same molecule, the “Absorbance, Average value” (Fn bacteria biofilms; pH 6.0, 590 nm) was 0.465, the “Biofilm formation from absorbance trend” value (Fn bacteria biofilms; pH value below 4.5, compared to pH 6.0, FIG. 7) was “biofilm formation was made more difficult” and the “Viscosity reduction compared to pH 7.0” value ([4]; pH 0.5) was “⅓”. The Viscosity ([4]; test solution pH 0.5) was 130 dPa · s, the Viscosity ([4]; test solution pH 2.0) was 150 dPa · s and the Viscosity ([4]; test solution pH 3.0) was 180 dPa · s. For the same molecule, the Viscosity ([4]; test solution pH 4.0) was 210 dPa · s, the Viscosity ([4]; test solution pH 5.0) was 240 dPa · s and the Viscosity ([4]; test solution pH 6.0) was 310 dPa · s.
